Test results: PubChem BioAssay (NCI)
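Method: 48-hour compound exposure of cells in 96-well plates, five concentrations, linear interpolation of endpoints. TGI is the concentration that stops growth completely.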

How the values were obtained:
Experiment in all cases: growth of human tumour cells (NCI), 48 h
SF-539 CNS = tested on: SF-539 CNS
SR leukemia = tested on: SR leukemia
HT29 colon = tested on: HT29 colon
MDA-MB-231 breast = tested on: MDA-MB-231 breast
BT-549 breast = tested on: BT-549 breast
K-562 leukemia = tested on: K-562 leukemia
A498 renal = tested on: A498 renal
SN12C renal = tested on: SN12C renal
SW-620 colon = tested on: SW-620 colon
UO-31 renal = tested on: UO-31 renal
TK-10 renal = tested on: TK-10 renal
SK-MEL-28 melanoma = tested on: SK-MEL-28 melanoma
SK-MEL-5 melanoma = tested on: SK-MEL-5 melanoma
MDA-MB-435 = tested on: MDA-MB-435
NCI-H522 lung = tested on: NCI-H522 lung
OVCAR-8 ovarian = tested on: OVCAR-8 ovarian
SK-OV-3 ovarian = tested on: SK-OV-3 ovarian
CCRF-CEM leukemia = tested on: CCRF-CEM leukemia
EKVX NSCLC = tested on: EKVX NSCLC
HCT-116 colon = tested on: HCT-116 colon
RXF 393 renal = tested on: RXF 393 renal
U251 CNS = tested on: U251 CNS
KM12 colon = tested on: KM12 colon
A549 NSCLC = tested on: A549 NSCLC
IGROV1 ovarian = tested on: IGROV1 ovarian
OVCAR-3 ovarian = tested on: OVCAR-3 ovarian
HOP-92 NSCLC = tested on: HOP-92 NSCLC
NCI-H460 lung = tested on: NCI-H460 lung
M14 melanoma = tested on: M14 melanoma
NCI-H226 lung = tested on: NCI-H226 lung
MCF7 breast = tested on: MCF7 breast
DU-145 prostate = tested on: DU-145 prostate
LOX IMVI melanoma = tested on: LOX IMVI melanoma
OVCAR-5 ovarian = tested on: OVCAR-5 ovarian
MALME-3M melanoma = tested on: MALME-3M melanoma
UACC-62 melanoma = tested on: UACC-62 melanoma
SF-268 CNS = tested on: SF-268 CNS
ACHN renal = tested on: ACHN renal
786-0 renal = tested on: 786-0 renal
UACC-257 melanoma = tested on: UACC-257 melanoma
OVCAR-4 ovarian = tested on: OVCAR-4 ovarian
CAKI-1 renal = tested on: CAKI-1 renal
HOP-62 NSCLC = tested on: HOP-62 NSCLC
HCC-2998 colon = tested on: HCC-2998 colon
NCI/ADR-RES ovarian = tested on: NCI/ADR-RES ovarian
HCT-15 colon = tested on: HCT-15 colon
COLO 205 colon = tested on: COLO 205 colon
SNB-19 CNS = tested on: SNB-19 CNS
SNB-75 CNS = tested on: SNB-75 CNS
SF-295 CNS = tested on: SF-295 CNS
SK-MEL-2 melanoma = tested on: SK-MEL-2 melanoma
NCI-H23 lung = tested on: NCI-H23 lung
HS 578T breast = tested on: HS 578T breast
MDA-N = tested on: MDA-N
MOLT-4 leukemia = tested on: MOLT-4 leukemia
PC-3 prostate = tested on: PC-3 prostate
RPMI-8226 leukemia = tested on: RPMI-8226 leukemia
T-47D breast = tested on: T-47D breast
HL-60(TB) leukemia = tested on: HL-60(TB) leukemia

## C/C(=N\Nc1nc2ccccc2n1C)c1ccc2ccccc2n1
SF-539 CNS
  TGI: > 34.3 µM
SR leukemia
  TGI: 3.73 µM
HT29 colon
  TGI: 18.3 µM
MDA-MB-231 breast
  TGI: 28.8 µM
BT-549 breast
  TGI: > 59.6 µM
K-562 leukemia
  TGI: 10.6 µM
A498 renal
  TGI: 15.6 µM
SN12C renal
  TGI: 16.2 µM
SW-620 colon
  TGI: 25.8 µM
UO-31 renal
  TGI: 11.8 µM
TK-10 renal
  TGI: 34 µM
SK-MEL-28 melanoma
  TGI: 37.3 µM
SK-MEL-5 melanoma
  TGI: 5.43 µM
MDA-MB-435
  TGI: 42.7 µM
NCI-H522 lung
  TGI: 19.6 µM
OVCAR-8 ovarian
  TGI: > 100 µM
SK-OV-3 ovarian
  TGI: > 100 µM
CCRF-CEM leukemia
  TGI: 1.67 µM
EKVX NSCLC
  TGI: 4.3 µM
HCT-116 colon
  TGI: 7.03 µM
RXF 393 renal
  TGI: 29.3 µM
U251 CNS
  TGI: > 43.6 µM
KM12 colon
  TGI: 43.5 µM
A549 NSCLC
  TGI: 16.1 µM
IGROV1 ovarian
  TGI: 2.74 µM
OVCAR-3 ovarian
  TGI: 0.213 µM
HOP-92 NSCLC
  TGI: 37.8 µM
NCI-H460 lung
  TGI: 32.1 µM
M14 melanoma
  TGI: 4.91 µM
NCI-H226 lung
  TGI: 6.83 µM
MCF7 breast
  TGI: 27.4 µM
DU-145 prostate
  TGI: 14.5 µM
LOX IMVI melanoma
  TGI: 16.6 µM
OVCAR-5 ovarian
  TGI: 11 µM
MALME-3M melanoma
  TGI: 16.3 µM
UACC-62 melanoma
  TGI: 9.79 µM
SF-268 CNS
  TGI: 19.2 µM
ACHN renal
  TGI: > 54.5 µM
786-0 renal
  TGI: 11.5 µM
UACC-257 melanoma
  TGI: > 47 µM
OVCAR-4 ovarian
  TGI: 0.954 µM
CAKI-1 renal
  TGI: 4.51 µM
HOP-62 NSCLC
  TGI: 18.2 µM
HCC-2998 colon
  TGI: 0.9 µM
NCI/ADR-RES ovarian
  TGI: 6.71 µM
HCT-15 colon
  TGI: > 75.7 µM
COLO 205 colon
  TGI: > 100 µM
SNB-19 CNS
  TGI: > 100 µM
SNB-75 CNS
  TGI: 46.4 µM
SF-295 CNS
  TGI: 10.5 µM
SK-MEL-2 melanoma
  TGI: > 36 µM
NCI-H23 lung
  TGI: 31 µM
HS 578T breast
  TGI: 63.8 µM
MDA-N
  TGI: 37.7 µM

## OC1CSCCSCCCSCCSC1
SF-539 CNS
  TGI: > 100 µM
HT29 colon
  TGI: > 100 µM
MDA-MB-231 breast
  TGI: > 100 µM
BT-549 breast
  TGI: > 100 µM
K-562 leukemia
  TGI: > 100 µM
A498 renal
  TGI: > 100 µM
SN12C renal
  TGI: > 100 µM
SW-620 colon
  TGI: > 100 µM
UO-31 renal
  TGI: > 100 µM
TK-10 renal
  TGI: > 100 µM
SK-MEL-28 melanoma
  TGI: > 100 µM
SK-MEL-5 melanoma
  TGI: > 100 µM
MDA-MB-435
  TGI: > 100 µM
NCI-H522 lung
  TGI: > 100 µM
OVCAR-8 ovarian
  TGI: > 100 µM
SK-OV-3 ovarian
  TGI: > 100 µM
EKVX NSCLC
  TGI: > 100 µM
HCT-116 colon
  TGI: > 100 µM
MOLT-4 leukemia
  TGI: > 100 µM
RXF 393 renal
  TGI: > 100 µM
U251 CNS
  TGI: > 100 µM
A549 NSCLC
  TGI: > 100 µM
PC-3 prostate
  TGI: > 100 µM
RPMI-8226 leukemia
  TGI: > 100 µM
IGROV1 ovarian
  TGI: > 100 µM
OVCAR-3 ovarian
  TGI: > 100 µM
HOP-92 NSCLC
  TGI: > 100 µM
NCI-H460 lung
  TGI: > 100 µM
M14 melanoma
  TGI: > 100 µM
NCI-H226 lung
  TGI: > 100 µM
MCF7 breast
  TGI: > 100 µM
DU-145 prostate
  TGI: > 100 µM
LOX IMVI melanoma
  TGI: > 100 µM
OVCAR-5 ovarian
  TGI: > 100 µM
UACC-62 melanoma
  TGI: > 100 µM
SF-268 CNS
  TGI: > 100 µM
ACHN renal
  TGI: > 100 µM
786-0 renal
  TGI: > 100 µM
UACC-257 melanoma
  TGI: > 100 µM
OVCAR-4 ovarian
  TGI: > 100 µM
CAKI-1 renal
  TGI: > 100 µM
T-47D breast
  TGI: > 100 µM
HOP-62 NSCLC
  TGI: > 100 µM
HCC-2998 colon
  TGI: > 100 µM
HCT-15 colon
  TGI: > 100 µM
COLO 205 colon
  TGI: > 100 µM
SNB-19 CNS
  TGI: > 100 µM
SNB-75 CNS
  TGI: > 100 µM
SF-295 CNS
  TGI: > 100 µM
SK-MEL-2 melanoma
  TGI: > 100 µM
NCI-H23 lung
  TGI: > 100 µM
HS 578T breast
  TGI: > 100 µM
MDA-N
  TGI: > 100 µM
HL-60(TB) leukemia
  TGI: > 100 µM

## O=c1[nH]nc(Cc2ccccc2)n1C1CC1
SF-539 CNS
  TGI: > 100 µM
SR leukemia
  TGI: > 100 µM
HT29 colon
  TGI: > 100 µM
MDA-MB-231 breast
  TGI: > 100 µM
K-562 leukemia
  TGI: > 100 µM
A498 renal
  TGI: > 100 µM
SN12C renal
  TGI: > 100 µM
SW-620 colon
  TGI: > 100 µM
UO-31 renal
  TGI: > 100 µM
TK-10 renal
  TGI: > 100 µM
SK-MEL-28 melanoma
  TGI: > 100 µM
SK-MEL-5 melanoma
  TGI: > 100 µM
MDA-MB-435
  TGI: > 100 µM
NCI-H522 lung
  TGI: > 100 µM
OVCAR-8 ovarian
  TGI: > 100 µM
SK-OV-3 ovarian
  TGI: > 100 µM
CCRF-CEM leukemia
  TGI: > 100 µM
EKVX NSCLC
  TGI: > 100 µM
HCT-116 colon
  TGI: > 100 µM
MOLT-4 leukemia
  TGI: > 100 µM
RXF 393 renal
  TGI: > 100 µM
U251 CNS
  TGI: > 100 µM
KM12 colon
  TGI: > 100 µM
A549 NSCLC
  TGI: > 100 µM
PC-3 prostate
  TGI: > 100 µM
RPMI-8226 leukemia
  TGI: > 100 µM
IGROV1 ovarian
  TGI: > 100 µM
OVCAR-3 ovarian
  TGI: > 100 µM
HOP-92 NSCLC
  TGI: > 100 µM
NCI-H460 lung
  TGI: > 100 µM
M14 melanoma
  TGI: > 100 µM
NCI-H226 lung
  TGI: > 100 µM
MCF7 breast
  TGI: > 100 µM
DU-145 prostate
  TGI: > 100 µM
LOX IMVI melanoma
  TGI: > 100 µM
OVCAR-5 ovarian
  TGI: > 100 µM
MALME-3M melanoma
  TGI: > 100 µM
UACC-62 melanoma
  TGI: > 100 µM
SF-268 CNS
  TGI: > 100 µM
ACHN renal
  TGI: > 100 µM
786-0 renal
  TGI: > 100 µM
UACC-257 melanoma
  TGI: > 100 µM
OVCAR-4 ovarian
  TGI: > 100 µM
CAKI-1 renal
  TGI: > 100 µM
T-47D breast
  TGI: > 100 µM
HOP-62 NSCLC
  TGI: > 100 µM
HCC-2998 colon
  TGI: > 100 µM
NCI/ADR-RES ovarian
  TGI: > 100 µM
HCT-15 colon
  TGI: > 100 µM
COLO 205 colon
  TGI: > 100 µM
SNB-19 CNS
  TGI: > 100 µM
SNB-75 CNS
  TGI: > 100 µM
SF-295 CNS
  TGI: > 100 µM
NCI-H23 lung
  TGI: > 100 µM
HS 578T breast
  TGI: > 100 µM
MDA-N
  TGI: > 100 µM
HL-60(TB) leukemia
  TGI: > 100 µM
